One series deals with T-cells. The experiment in a line: selective cytotoxicity for T-cells in the presence of 2'-deoxyguanosine (standard test, Science, 214, 1137, 1981). The note with it: in the presence of 10 micromoles of 2'-deoxyguanosine. The format is cell-based. The source says:
(§1) The same compounds also were found by a standard test (Science, 214, 1137, 1981) to be selectively cytotoxic for T-cells in the presence of 2'-deoxyguanosine at a similar concentration range. For example, 2,8-diamino-9-[(2-hydroxyethoxy)methyl)]-9H-purine-6-ol is selectively cytotoxic to T-cell at a concentration of about 30 micromoles in the presence of 10 micromoles of 2'-deoxyguanosine. Similarly, 2-[(2,8-diamino-6-hydroxy-9H-purin-9-yl)methoxy]-1,3-propanediol is selectively cytotoxic to T-cell at a concentration of about 7 micromoles in the presence of 10 micromoles of 2'-deoxyguanosine. Both compounds were nontoxic to B-cell in the presence of the same amount of 2'-deoxyguanosine. Since T-cells play a central role in immune response, use of the compounds of the invention is contemplated for the immunoregulation of autoimmune diseases such as rheumatoid arthritis, systemic lupus erythematosus, inflammatory bowel disease, cancer, and viral diseases, transplantation, juvenile diabetes, myasthenia gravis, and multiple sclerosis. The present invention thus includes compositions containing a compound of formula 1 in treating disease such as autoimmune disease characterized by abnormal immune response in warmblooded animals. […]

Another series has as its system B-cell. The series can be described thus: toxicity to B-cell in the presence of 2'-deoxyguanosine. The series is classed as cell-based. The note with it: in the presence of the same amount (10 micromoles) of 2'-deoxyguanosine.
Source text: as §1

Turning to `Nc1nc2c(nc(N)n2COCCO)c(=O)[nH]1` [2,8-Diamino-9-[(2-hydroxyethoxy)methyl)]-9H-purin-6-ol], in the series with T-cells, the “concentration at which selectively cytotoxic to T-cell” value was “about 30 micromoles”. The “toxicity to B-cell” value with B-cell is “nontoxic”.

Regarding `Nc1nc(O)c2nc(N)n(COC(CO)CO)c2n1` [2-[(2,8-Diamino-6-hydroxy-9H-purin-9-yl)methoxy]-1,3-propanediol], the “concentration at which selectively cytotoxic to T-cell” value in the series on T-cells is given as “about 7 micromoles”. For the same molecule, the “toxicity to B-cell” value in the series on B-cell was “nontoxic”.
